Test results from patent US20230416248A1, “COMPOUNDS AND USES THEREOF” (Foghorn Therapeutics Inc., priority 2020, published 2023).
Read-outs that look alike come from different tables or passages of the source.

What was measured:
BRM = biological target: T1, BRM (Homo sapiens, UniProt P51531); assay: ATPase catalytic activity of BRM, ADP-Glo in vitro biochemical assay; conditions: for IC50: 30 nM BRM, 400 μM ATP; for Ratio* (BRG1 IC50 (μM) divided by BRM IC50 (μM)): selectivity ratio BRG1 IC50 / BRM IC50
T1 construct: made in house; host or cells: High Five insect cells
Procedure, shortened: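 Recombinant BRM (30 nM) hydrolysed 400 μM ATP with 20 nM salmon sperm DNA in pH 8 Tris buffer containing 20 mM MgCl2, 50 mM NaCl, 0.1% Tween-20 and 1 mM DTT, 1 h at room temperature. ADP formed was quantified by ADP-Glo luminescence.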

BRG-1 = biological target: T2, BRG-1 (Homo sapiens, UniProt P51532); assay: ATPase catalytic activity of BRG-1, ADP-Glo in vitro biochemical assay; conditions: 30 nM BRG-1, 400 μM ATP, read-out: BRG1 IC50
T2 construct: made in house; host or cells: High Five insect cells
Procedure, shortened: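 Signal reflects ADP produced by the enzyme, quantified as luminescence after unused ATP is cleared and ADP is reconverted to ATP for the luciferase reaction; both steps run at room temperature, 40 and 60 min respectively.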

[1] = ATPase catalytic activity, ADP-Glo

T2 sequence (P51532 whole entry): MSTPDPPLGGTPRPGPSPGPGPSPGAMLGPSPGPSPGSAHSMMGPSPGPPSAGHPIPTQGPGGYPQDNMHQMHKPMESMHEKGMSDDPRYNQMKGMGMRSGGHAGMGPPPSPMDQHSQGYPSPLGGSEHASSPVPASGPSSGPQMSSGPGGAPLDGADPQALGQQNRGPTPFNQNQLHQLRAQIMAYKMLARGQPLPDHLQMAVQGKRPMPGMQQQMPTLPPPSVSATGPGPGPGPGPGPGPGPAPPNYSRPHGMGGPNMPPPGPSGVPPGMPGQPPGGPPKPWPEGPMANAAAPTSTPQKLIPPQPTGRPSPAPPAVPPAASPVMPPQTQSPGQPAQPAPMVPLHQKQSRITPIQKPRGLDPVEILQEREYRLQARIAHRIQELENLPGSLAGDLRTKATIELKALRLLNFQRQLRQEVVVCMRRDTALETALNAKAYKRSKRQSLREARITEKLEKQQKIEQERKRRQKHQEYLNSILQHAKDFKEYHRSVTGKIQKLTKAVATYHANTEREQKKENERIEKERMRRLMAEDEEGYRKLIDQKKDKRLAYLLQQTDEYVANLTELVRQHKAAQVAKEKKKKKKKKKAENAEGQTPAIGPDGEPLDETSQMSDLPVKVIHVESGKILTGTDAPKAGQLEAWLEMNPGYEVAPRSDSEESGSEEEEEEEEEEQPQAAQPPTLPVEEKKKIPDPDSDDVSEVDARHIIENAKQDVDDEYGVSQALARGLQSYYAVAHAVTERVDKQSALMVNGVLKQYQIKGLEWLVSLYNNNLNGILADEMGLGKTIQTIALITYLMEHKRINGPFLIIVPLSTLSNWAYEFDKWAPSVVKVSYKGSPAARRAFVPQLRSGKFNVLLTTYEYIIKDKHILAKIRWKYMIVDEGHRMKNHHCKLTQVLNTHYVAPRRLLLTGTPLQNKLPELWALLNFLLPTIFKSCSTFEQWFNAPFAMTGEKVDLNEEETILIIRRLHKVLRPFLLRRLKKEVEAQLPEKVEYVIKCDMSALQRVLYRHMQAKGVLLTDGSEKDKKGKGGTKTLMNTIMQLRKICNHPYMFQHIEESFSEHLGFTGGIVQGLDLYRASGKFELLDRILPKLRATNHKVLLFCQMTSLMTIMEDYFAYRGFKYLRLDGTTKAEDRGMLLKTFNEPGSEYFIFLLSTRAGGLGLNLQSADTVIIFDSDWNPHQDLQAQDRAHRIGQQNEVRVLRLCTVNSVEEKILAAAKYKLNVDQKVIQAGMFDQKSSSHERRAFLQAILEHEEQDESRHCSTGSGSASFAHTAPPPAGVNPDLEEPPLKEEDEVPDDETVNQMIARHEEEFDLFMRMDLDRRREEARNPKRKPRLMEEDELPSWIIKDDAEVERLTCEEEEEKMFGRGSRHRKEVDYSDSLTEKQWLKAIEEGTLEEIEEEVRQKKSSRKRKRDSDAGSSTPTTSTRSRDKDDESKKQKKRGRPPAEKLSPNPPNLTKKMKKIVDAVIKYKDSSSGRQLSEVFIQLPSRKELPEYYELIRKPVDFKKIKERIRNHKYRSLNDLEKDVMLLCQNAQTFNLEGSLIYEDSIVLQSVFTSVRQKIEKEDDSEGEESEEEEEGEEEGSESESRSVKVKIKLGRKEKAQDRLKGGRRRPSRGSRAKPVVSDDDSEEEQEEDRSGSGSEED
T1 sequence (P51531 whole entry): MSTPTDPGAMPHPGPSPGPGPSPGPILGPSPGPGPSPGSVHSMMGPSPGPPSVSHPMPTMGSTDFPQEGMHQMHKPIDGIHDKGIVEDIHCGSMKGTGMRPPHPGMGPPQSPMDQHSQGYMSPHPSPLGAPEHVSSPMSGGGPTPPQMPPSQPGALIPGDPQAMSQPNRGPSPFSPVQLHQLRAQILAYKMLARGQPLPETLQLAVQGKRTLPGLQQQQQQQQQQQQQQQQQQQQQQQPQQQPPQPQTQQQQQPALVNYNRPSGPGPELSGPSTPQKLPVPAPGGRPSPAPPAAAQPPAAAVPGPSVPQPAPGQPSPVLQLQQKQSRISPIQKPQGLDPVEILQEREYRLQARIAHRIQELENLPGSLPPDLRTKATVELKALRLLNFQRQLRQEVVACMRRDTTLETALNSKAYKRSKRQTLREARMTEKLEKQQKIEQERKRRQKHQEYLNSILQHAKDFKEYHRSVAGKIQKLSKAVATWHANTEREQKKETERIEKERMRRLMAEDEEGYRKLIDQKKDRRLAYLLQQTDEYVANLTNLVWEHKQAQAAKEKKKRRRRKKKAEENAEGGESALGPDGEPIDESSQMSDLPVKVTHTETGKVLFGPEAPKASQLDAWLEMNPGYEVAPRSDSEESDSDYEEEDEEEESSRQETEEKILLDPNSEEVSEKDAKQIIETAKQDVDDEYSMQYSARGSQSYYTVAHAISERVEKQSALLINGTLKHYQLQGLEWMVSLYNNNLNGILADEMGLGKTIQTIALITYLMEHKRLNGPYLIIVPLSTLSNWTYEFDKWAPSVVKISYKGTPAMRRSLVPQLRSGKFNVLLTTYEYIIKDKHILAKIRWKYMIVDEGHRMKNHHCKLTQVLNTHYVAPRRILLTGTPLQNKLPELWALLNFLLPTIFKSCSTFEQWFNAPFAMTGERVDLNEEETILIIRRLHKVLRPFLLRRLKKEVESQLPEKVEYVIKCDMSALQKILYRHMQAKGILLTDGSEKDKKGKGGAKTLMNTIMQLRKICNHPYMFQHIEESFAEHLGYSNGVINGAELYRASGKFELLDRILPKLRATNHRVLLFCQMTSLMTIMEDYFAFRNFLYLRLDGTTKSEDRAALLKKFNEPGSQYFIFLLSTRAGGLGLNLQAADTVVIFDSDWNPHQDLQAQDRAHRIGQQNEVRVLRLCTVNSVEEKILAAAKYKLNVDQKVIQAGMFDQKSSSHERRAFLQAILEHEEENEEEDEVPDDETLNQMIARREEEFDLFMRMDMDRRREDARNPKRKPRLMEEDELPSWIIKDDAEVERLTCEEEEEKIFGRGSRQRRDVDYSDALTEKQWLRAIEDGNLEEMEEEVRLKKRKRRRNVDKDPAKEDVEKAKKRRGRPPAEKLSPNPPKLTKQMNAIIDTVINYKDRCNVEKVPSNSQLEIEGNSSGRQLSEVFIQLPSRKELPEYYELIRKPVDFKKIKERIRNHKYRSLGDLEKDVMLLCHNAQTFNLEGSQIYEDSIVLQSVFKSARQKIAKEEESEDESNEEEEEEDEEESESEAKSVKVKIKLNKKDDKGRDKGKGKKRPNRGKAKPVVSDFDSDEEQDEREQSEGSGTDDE

Row | SMILES | IC50 (BRM; [1]) | Ratio* (BRM; ratio of BRG1 IC50 to BRM IC50) | IC50 (BRG-1; [1]) | IC50 (BRM; ADP-Glo ATPase assay) | Ratio* (BRG1 IC50 (μM) divided by BRM IC50 (μM)) (BRM) | IC50 (BRG-1; ADP-Glo ATPase assay) | Ratio* (BRM; ratio BRG1 IC50 / BRM IC50)
1 | COc1cccc(-c2ccc3cnc(CNC(=O)c4ccc5c(c4)S(=O)(=O)CCOC5)cc3n2)n1 [Compound 487] | 21.9 nM | 15.66 | 344 nM | – | – | – | –
2 | CC(C)S(=O)(=O)c1cccc(C(=O)NCc2cc3nc(-c4cccc(N5C[C@@H](C)O[C@@H](C)C5)n4)ccc3cn2)c1 [Compound 365] | 13.1 nM | 24.88 | 325 nM | – | – | – | –
3 | CC(C)c1cccc(-c2ccc3cnc(CNC(=O)c4ccc5c(c4)S(=O)(=O)CCOC5)cc3n2)n1 [Compound 289] | – | – | – | 59.8 nM | 16.01 | 958 nM | –
4 | C[C@H]1C[C@@H]1c1ccc2c(n1)N(c1ccc3cnc(CNC(=O)c4ccc5c(c4)S(=O)(=O)CCOC5)cc3n1)CCO2 [Compound 810] | – | – | – | 8.3 nM | – | 185 nM | 22.29
5 | O=C(NCc1cc2nc(-c3cccc(C4CC4)n3)ccc2nn1)c1cc(F)c2c(c1)S(=O)(=O)CCOC2 [Compound 422] | 10.9 nM | 28.45 | 310 nM | – | – | – | –
6 | O=C(NCc1cc2cc(N3CCOc4cc(N5CCOCC5)cnc43)ccc2cn1)c1ccc2c(c1)S(=O)(=O)CCOC2 [Compound 798] | – | – | – | 7.4 nM | – | 43.8 nM | 5.90
7 | CC1COCc2ccc(C(=O)NCc3cc4nc(N5CCOc6cccnc65)ccc4cn3)cc2S1(=O)=O (stereo not drawn) [Compound 523] | 11.6 nM | 15.53 | 181 nM | – | – | – | –
8 | CCOc1cccc(-c2ccc3cnc(CNC(=O)c4ccc5c(c4)S(=O)(=O)CCOC5)cc3n2)n1 [Compound 239] | – | – | – | 20.6 nM | 20.48 | 422 nM | –
9 | CN(c1cccc(-c2ccc3cnc(CNC(=O)c4ccc5c(c4)S(=O)(=O)CCOC5)cc3n2)n1)[C@@H]1CCOC1 [Compound 116] | – | – | – | 22.6 nM | 10.43 | 236 nM | –
10 | O=C(NCc1cc2nc(N3CCCc4ccc(OC5CC5)nc43)ccc2cn1)c1ccc2c(c1)S(=O)(=O)CCOC2 [Compound 746] | – | – | – | 22.2 nM | – | 567 nM | 25.51
11 | Cn1cnc2c(-c3ccc4cnc(CNC(=O)c5ccc6c(c5)S(=O)(=O)CCOC6)cc4n3)cccc21 [Compound 234] | – | – | – | 188 nM | 8.09 | 1520 nM | –
12 | O=C(NCc1cc2nc(-c3ccc4c(n3)CN(C3CC3)CC4)ccc2cn1)c1ccc2c(c1)S(=O)(=O)CCOC2 [Compound 788] | – | – | – | 620 nM | – | 4150 nM | 6.69
13 | CO[C@@H]1CN(c2cccc(-c3ccc4cnc(CNC(=O)c5ccc6c(c5)S(=O)(=O)CCOC6)cc4n3)n2)C[C@H]1F [Compound 340] | 22.2 nM | 13.96 | 309 nM | – | – | – | –
14 | CN(c1cccc(-c2ccc3cnc(CNC(=O)c4ccc5c(c4)S(=O)(=O)CCOC5)cc3n2)n1)C1CCOCC1 [Compound 174] | – | – | – | 28.8 nM | 9.24 | 266 nM | –
15 | O=C(NCc1cc2nc(N3CCCc4ccc(OCC5COC5)cc43)ccc2cn1)c1ccc2c(c1)S(=O)(=O)CCOC2 [Compound 676] | 3 nM | 11.70 | 35.5 nM | – | – | – | –
16 | COc1ncccc1-c1ccc2cnc(CNC(=O)c3ccc4c(c3)S(=O)(=O)CCOC4)cc2n1 [Compound 808] | – | – | – | 84 nM | – | 1050 nM | 12.50
17 | O=C(NCc1cc2nc(-c3cccc4c3OCCN4CC(F)F)ccc2cn1)c1ccc2c(c1)S(=O)(=O)CCOC2 [Compound 131] | – | – | – | 71.6 nM | 7.12 | 510 nM | –
18 | C[C@@H]1C[C@@H]1c1ccc2c(n1)N(c1ccc3cnc(CNC(=O)c4ccc5c(c4)S(=O)(=O)CCOC5)cc3n1)CCO2 [Compound 832] | – | – | – | 15.5 nM | – | 906 nM | 58.26
19 | CO[C@@H]1CN(c2cccc(-c3ccc4cnc(CNC(=O)c5ccc6c(c5)S(=O)(=O)CCOC6)cc4n3)n2)C[C@@H]1F [Compound 333] | 17.1 nM | 13.29 | 227 nM | – | – | – | –

Row | SMILES | IC50 (BRM; [1]) | Ratio* (BRM; ratio of BRG1 IC50 to BRM IC50) | IC50 (BRG-1; [1]) | IC50 (BRM; ADP-Glo ATPase assay) | Ratio* (BRG1 IC50 (μM) divided by BRM IC50 (μM)) (BRM) | IC50 (BRG-1; ADP-Glo ATPase assay) | Ratio* (BRM; ratio BRG1 IC50 / BRM IC50)
20 | COc1cc(C(C)(F)F)ccc1-c1ccc2cnc(CNC(=O)c3ccc4c(c3)S(=O)(=O)CCOC4)cc2n1 [Compound 419] | 24.5 nM | 15.63 | 384 nM | – | – | – | –
21 | CO[C@H]1C[C@H](c2cccc(-c3ccc4cnc(CNC(=O)c5ccc6c(c5)S(=O)(=O)CCOC6)cc4n3)n2)C1 [Compound 106] | – | – | – | 76.1 nM | 8.76 | 667 nM | –
22 | CCO[C@@H]1CCOc2c(-c3ccc4cnc(CNC(=O)c5ccc6c(c5)S(=O)(=O)CCOC6)cc4n3)cccc21 [Compound 65] | – | – | – | 16.2 nM | 6.14 | 99.7 nM | –
23 | CN(c1ccccn1)c1ccc2cnc(CNC(=O)c3ccc4c(c3)S(=O)(=O)CCOC4)cc2n1 [Compound 108] | – | – | – | 672 nM | 7.43 | 5000 nM | –
24 | O=C(NCc1cc2nc(N3CCCc4c(N5CCC5)ccnc43)ccc2cn1)c1ccc2c(c1)S(=O)(=O)CCOC2 [Compound 814] | – | – | – | 21.4 nM | – | 222 nM | 10.40
25 | Cc1cc(C(=O)NCc2cc3nc(-c4cccc(N5C[C@@H](C)O[C@@H](C)C5)n4)ccc3cn2)cc2c1COCCS2(=O)=O [Compound 354] | 14 nM | 29.57 | 415 nM | – | – | – | –
26 | C[C@@H]1CN(c2cccc(-c3ccc4cnc(CNC(=O)c5ccc(C(F)F)c(S(C)(=O)=O)c5)cc4n3)n2)C[C@@H](C)O1 [Compound 158] | – | – | – | 13.1 nM | 20.03 | 262 nM | –
27 | CC1CCc2ccc(-c3ccc4cnc(CNC(=O)c5ccc6c(c5)S(=O)(=O)CCOC6)cc4n3)nc2N1C1CC1 (stereo not drawn) [Compound 425] | 101 nM | 9.58 | 966 nM | – | – | – | –
28 | CN(C)c1cnc2c(c1)OCCN2c1ccc2cnc(CNC(=O)c3ccc4c(c3)S(=O)(=O)CCOC4)cc2n1 [Compound 763] | – | – | – | 5.3 nM | – | 45.4 nM | 8.52
29 | O=C(NCc1cc2nc(N3CC(F)Cc4cccnc43)ccc2cn1)c1ccc2c(c1)S(=O)(=O)CCOC2 (stereo not drawn) [Compound 842] | – | – | – | 29.9 nM | – | 329 nM | 10.98
30 | COc1cc2c(nc1C)N(c1ccc3cnc(CNC(=O)c4ccc5c(c4)S(=O)(=O)CCOC5)cc3n1)CCC2 [Compound 602] | 15.8 nM | 9.98 | 158 nM | – | – | – | –
31 | O=C(NCc1cc2cc(-c3cncc(C4CC4)n3)ccc2cn1)c1ccc2c(c1)S(=O)(=O)CCOC2 [Compound 263] | – | – | – | 23.3 nM | 14.94 | 348 nM | –
32 | O=C(NCc1cc2nc(N3CCN(CC(F)F)c4cccnc43)ccc2cn1)c1ccc2c(c1)S(=O)(=O)CCOC2 [Compound 742] | – | – | – | 24 nM | – | 478 nM | 19.92
33 | CC1COCc2ccc(C(=O)NCc3cc4nc(-c5cccc(N6C[C@@H](C)O[C@@H](C)C6)n5)ccc4cn3)cc2S1(=O)=O (stereo partly drawn) [Compound 319] | 21.1 nM | 15.59 | 329 nM | – | – | – | –
34 | O=C(NCc1cc2nc(-c3cncc(C(F)(F)F)n3)ccc2cn1)c1ccc2c(c1)S(=O)(=O)CCOC2 [Compound 209] | – | – | – | 498 nM | 7.27 | 3620 nM | –
35 | O=C(NCc1cc2nc(N3CCN(C4CC4)c4cc(C5CC5)cnc43)ccc2cn1)c1ccc2c(c1)S(=O)(=O)CCOC2 [Compound 756] | – | – | – | 15.1 nM | – | 176 nM | 11.62
36 | O=C(NCc1cc2nc(-n3cc(F)c(N4CCOCC4)n3)ccc2cn1)c1ccc2c(c1)S(=O)(=O)CCOC2 [Compound 574] | 274 nM | 6.49 | 1780 nM | – | – | – | –
37 | O=C(NCc1cc2nc(-c3cncc(C4CC4)n3)ccc2cn1)c1cc(Cl)c2c(c1)S(=O)(=O)CCOC2 [Compound 187] | – | – | – | 109 nM | 24.40 | 2670 nM | –
